# Results: publication PMC6010091, “Inhibition of the β-carbonic anhydrase from the dandruff-producing fungus Malassezia globosa with monothiocarbamates” (Journal of Enzyme Inhibition and Medicinal Chemistry, 2017)
# Target: T1, MgCA (Malassezia globosa, UniProt A8Q1N3)
# T1 construct: gene MGL_1814; recombinant, purified; dimer in the homology model; Zn ligands C47, H103, C106
# T1 sequence (A8Q1N3 1-241): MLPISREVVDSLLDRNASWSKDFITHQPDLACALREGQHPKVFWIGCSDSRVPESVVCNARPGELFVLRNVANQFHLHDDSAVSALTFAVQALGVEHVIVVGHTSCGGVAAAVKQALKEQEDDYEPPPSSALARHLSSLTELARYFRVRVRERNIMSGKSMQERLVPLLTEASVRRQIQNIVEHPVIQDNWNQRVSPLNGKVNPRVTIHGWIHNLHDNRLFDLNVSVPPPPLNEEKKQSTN
# Experiment: stopped-flow CO2 hydration assay, Cheng-Prusoff
# Format: biochemical
row,SMILES,Ki [µM]
1,"CCCN(CCC)C(=O)S [compound 4, 4]",1.85
2,"CCCCN(CCCC)C(=O)S [compound 5, 5]",7.52
3,"CC(C)CN(CC(C)C)C(=O)S [compound 6, 6]",8.61
4,"CCCCN(CC)C(=O)S [compound 7, 7]",5.26
5,"CN(Cc1ccccc1)C(=O)S [compound 9, 9]",7.61
6,"O=C(S)N1CCOCC1 [compound 10, 10]",7.65
7,"O=C(S)N1CCNCC1 [compound 11, 11]",7.41
8,"O=C(S)N1CCN(c2ccc(F)cc2)CC1 [compound 12, 12]",8.33
9,"O=C(S)N1CCN(c2ccc(C(F)(F)F)cc2)CC1 [compound 13, 13]",4.22
10,"O=C(S)N1CCN(c2cccc(Cl)c2)CC1 [compound 14, 14]",15.9
11,"O=C(CN1CCN(C(=O)S)CC1)NC1CCCCC1 [compound 15, 15]",6.13
12,"S=C(S)SCc1ccccc1 [compound 16, 16]",8.12
13,"S=C(S)OCCc1ccccc1 [compound 17, 17]",16.2
